The record followed here is paper PMC2957478 (Bioorganic & medicinal chemistry letters, 2009).

The target of the assay is PAI-1 (Homo sapiens, UniProt P05121). The following applies: for inhibitory activity towards PAI-1 (in words): in vitro.
Chain of PAI-1 (P05121 24-402, species assumed): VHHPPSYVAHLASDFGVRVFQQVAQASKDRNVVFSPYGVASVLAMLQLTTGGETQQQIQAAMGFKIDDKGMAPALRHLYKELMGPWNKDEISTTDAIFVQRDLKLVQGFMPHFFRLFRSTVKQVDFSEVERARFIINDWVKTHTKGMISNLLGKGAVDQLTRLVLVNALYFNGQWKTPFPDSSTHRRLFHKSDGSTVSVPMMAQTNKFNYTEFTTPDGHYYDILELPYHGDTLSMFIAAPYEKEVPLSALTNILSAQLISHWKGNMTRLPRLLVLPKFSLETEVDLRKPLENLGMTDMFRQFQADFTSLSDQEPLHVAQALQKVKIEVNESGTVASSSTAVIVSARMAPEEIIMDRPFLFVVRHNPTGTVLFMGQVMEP

Regarding `CCN(CCN(CC)S(=O)(=O)c1ccc(O)c(O)c1)S(=O)(=O)c1ccc(O)c(O)c1` [3b], the “increase in inhibitor potency against PAI-1 compared to the non-alkylated version 3a” value (ratio of IC50 values vs 3a) is listed as “about 55 fold”.
Turning to `O=S(=O)(c1ccc(O)c(O)c1)N1CCN(S(=O)(=O)c2ccc(O)c(O)c2)CC1` [compound 4], the “inhibitory activity towards PAI-1 (in words)” value was “lacked significant inhibitory activity towards PAI-1”.
On to `CCN(CCN(CC)S(=O)(=O)c1cc(O)ccc1O)S(=O)(=O)c1cc(O)ccc1O` [compound 7], for which the “inhibitory activity towards PAI-1 (in words)” value was “lacked significant potency towards PAI-1”.
Take `CCN(CCN(CC)S(=O)(=O)c1cc(F)c(O)c(F)c1)S(=O)(=O)c1cc(F)c(O)c(F)c1` [compound 13, bis-3,5-difluoro-4-hydroxybenzenesulfonamide]: the “fold less potent against PAI-1 than the 3,4-dihydroxy version (3b)” value (ratio of IC50 values vs 3b) was “roughly 15 fold”.
